This is an account of results in patent US9764059B2, “Chlorhexidine gluconate containing solvent adhesive” (Avery Dennison Corporation, priority 2011, dated 2017).

The conditions of data set [1]: cited from earlier work.
The next data set can be described thus: Solubility. It counts as physicochemical.

In the case of `N=C(NCCCCCCNC(=N)NC(=N)Nc1ccc(Cl)cc1)NC(=N)Nc1ccc(Cl)cc1.O=C(O)[C@H](O)[C@@H](O)[C@H](O)[C@H](O)CO.O=C(O)[C@H](O)[C@@H](O)[C@H](O)[C@H](O)CO` [chlorhexidine gluconate], in data set [1], the solubility in solvents entry was “only soluble in methanol and acetone”.
For the molecule `N=C(NCCCCCCNC(=N)NC(=N)Nc1ccc(Cl)cc1)NC(=N)Nc1ccc(Cl)cc1` [Chlorhexidine base], the solubility in water entry in the data set “Solubility” is listed as “low solubility in water”.
